Assay [1] addresses T1, Fatty-acid amide hydrolase 1 (Homo sapiens, UniProt O00519).
T1 sequence (O00519 whole entry): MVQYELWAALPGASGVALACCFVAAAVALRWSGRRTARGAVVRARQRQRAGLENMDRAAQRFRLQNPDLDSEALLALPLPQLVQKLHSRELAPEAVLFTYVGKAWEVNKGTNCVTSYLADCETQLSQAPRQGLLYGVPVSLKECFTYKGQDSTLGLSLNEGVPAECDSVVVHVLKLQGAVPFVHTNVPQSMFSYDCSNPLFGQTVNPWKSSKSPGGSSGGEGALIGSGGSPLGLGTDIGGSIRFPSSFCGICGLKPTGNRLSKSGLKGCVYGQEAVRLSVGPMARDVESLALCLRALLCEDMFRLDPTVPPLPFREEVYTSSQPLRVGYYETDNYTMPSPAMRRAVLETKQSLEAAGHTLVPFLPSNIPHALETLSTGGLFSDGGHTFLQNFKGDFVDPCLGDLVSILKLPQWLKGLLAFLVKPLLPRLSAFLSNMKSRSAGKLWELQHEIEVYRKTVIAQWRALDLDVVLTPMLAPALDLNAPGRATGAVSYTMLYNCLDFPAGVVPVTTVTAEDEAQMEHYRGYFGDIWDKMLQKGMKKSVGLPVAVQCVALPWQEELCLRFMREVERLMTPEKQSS
The assay can be described thus: FAAH Activity Assay. The note with it: pH 7.6; 37 °C. The protocol: In this assay, 0.05 Units of hFAAH was pre-incubated for 30 min at 37 C with 2 uL of 11a, 11b, 11f at different concentrations (0.01 - 100 uM) or vehicin 196 uL of assay buffer (10 mM Tris-HCl, 1 mM EDTA (pH 7.6) and 0.1% w/v fatty acid-free BSA). 2 uL of AEA/[3H]-AEA mixture was added to the solution (final concenttion in assay was 10 nM) and incubated for 15 min at 37 C.

A further assay has as its target Cannabinoid receptor 1 (Homo sapiens, UniProt P21554). The assay can be described thus: CB1 & 2 Binding Assays. The note with it: pH 7.4; 30 °C.
The next assay addresses Cannabinoid receptor 2 (Homo sapiens, UniProt P34972). Briefly: CB1 & 2 Binding Assays. The settings on record: pH 7.4; 30 °C.

Each structure is given as a SMILES string.

By IC50 is commonly meant the concentration needed to halve the response being measured. Broadly, the Ki is the equilibrium dissociation constant of an inhibitor or competing ligand from its target. Low values mean tighter binding, high ones weaker binding.

Sequence of Cannabinoid receptor 2 (P34972 whole entry): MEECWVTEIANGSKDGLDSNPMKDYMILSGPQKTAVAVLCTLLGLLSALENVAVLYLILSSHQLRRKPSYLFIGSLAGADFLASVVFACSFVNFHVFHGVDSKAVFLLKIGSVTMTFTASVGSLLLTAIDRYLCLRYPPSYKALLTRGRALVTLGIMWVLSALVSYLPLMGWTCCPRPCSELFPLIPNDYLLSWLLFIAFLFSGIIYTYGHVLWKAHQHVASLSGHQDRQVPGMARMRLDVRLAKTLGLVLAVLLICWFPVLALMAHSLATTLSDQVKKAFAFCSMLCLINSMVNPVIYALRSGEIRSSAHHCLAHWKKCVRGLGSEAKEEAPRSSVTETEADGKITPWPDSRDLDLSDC
Sequence of Cannabinoid receptor 1 (P21554 whole entry): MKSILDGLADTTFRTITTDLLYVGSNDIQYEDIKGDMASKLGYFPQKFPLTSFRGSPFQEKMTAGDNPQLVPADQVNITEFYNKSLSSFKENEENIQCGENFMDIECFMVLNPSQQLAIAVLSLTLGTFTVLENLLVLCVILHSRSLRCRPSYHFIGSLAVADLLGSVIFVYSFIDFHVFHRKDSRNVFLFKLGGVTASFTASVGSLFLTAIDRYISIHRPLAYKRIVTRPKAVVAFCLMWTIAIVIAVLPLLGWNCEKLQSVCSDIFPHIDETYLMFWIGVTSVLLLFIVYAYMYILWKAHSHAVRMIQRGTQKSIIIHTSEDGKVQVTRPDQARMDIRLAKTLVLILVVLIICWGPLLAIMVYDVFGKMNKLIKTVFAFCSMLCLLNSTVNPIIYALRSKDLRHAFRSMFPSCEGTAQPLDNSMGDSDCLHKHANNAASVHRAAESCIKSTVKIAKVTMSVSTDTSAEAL

In assay [1], `C=C1CC/C=C(\C)CC[C@@H]2[C@H]1CC2(C)C` [β-humulene] gave an IC50 of over 10 µM. Moreover, the Ki on Cannabinoid receptor 1 is over 10 µM.

In assay [1], `C=C(C)CC[C@@H]1[C@H](C(=C)CC/C=C/C(=O)NCc2ccc(O)c(OC)c2)CC1(C)C` [(E)-6-((1R,2R)-3,3-Dimethyl-2-(3-methylbut-3-enyl)cyclobutyl)-N-(4-hydroxy-3-methoxybenzyl)hepta-2,6-dienamide (11e)] showed an IC50 of 7.1 µM. Besides, the inhibitory constant (Ki) at Cannabinoid receptor 2 and on Cannabinoid receptor 1 was over 10 µM throughout.

In turn, `C=CCNC(=O)/C=C/CCC(=C)[C@@H]1CC(C)(C)[C@@H]1CCC(=C)C` [(E)-N-Allyl-6-((1R,2R)-3,3-dimethyl-2-(3-methylbut-3-enyl)cyclobutyl)hepta-2,6-dienamide (11b)] had an IC50 in assay [1] of 2.7 µM. The compound also gave a Ki on Cannabinoid receptor 2 of 0.68 µM.

For `C=C(C)CC[C@@H]1[C@H](C(=C)CC/C=C/C(=O)NCCCl)CC1(C)C` [(E)-N-(2-Chloroethyl)-6-((1R,2R)-3,3-dimethyl-2-(3-methylbut-3-enyl)cyclobutyl)hepta-2,6-dienamide (11c)], in assay [1], the IC50 is over 10 µM. This compound also showed a Ki on Cannabinoid receptor 2 of 1.43 µM.

In turn, `C=C(C)CC[C@@H]1[C@H](C(=C)CC/C=C/C(=O)NCCc2ccc(O)c(O)c2)CC1(C)C` [(E)-N-(3,4-Dihydroxyphenethyl)-6-((1R,2R)-3,3-dimethyl-2-(3-methylbut-3-enyl)cyclobutyl)hepta-2,6-dienamide (11f)] registered an IC50 in assay [1] of over 10 µM. Moreover, the Ki was 6.5 µM at Cannabinoid receptor 2 and over 10 µM on Cannabinoid receptor 1.

As for `C=C(C)CC[C@@H]1[C@H](C(=C)CC/C=C/C(=O)NCCC)CC1(C)C` [(E)-6-((1R,2R)-3,3-Dimethyl-2-(3-methylbut-3-enyl)cyclobutyl)-N-propylhepta-2,6-dienamide (11a)], it took 6.3 µM to reach half-maximal inhibition in assay [1] (IC50). This compound gave a Ki on Cannabinoid receptor 2 of 1.01 µM.

On Cannabinoid receptor 2, `CCCC(C)(C)c1ccc2c(c1)OC(C)(C)[C@@H]1CC=C(C)C[C@@H]21` showed a Ki of 0.013 µM.
